According to ChEMBL document CHEMBL1201862, “PubChem BioAssay data set” (2004):
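Each compound was tested at five concentrations against cells in 96-well plates for 48 hours. GI50: concentration for 50% inhibition of growth.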 The source made the active and inactive calls. No stated cut-off is given here; in the data, active = GI50 up to about 1.1 µM and inactive = higher.

Tests used:
Assay in all cases: DTP human tumour cell line panel, 48 h
786-0 = system: 786-0
A498 = system: A498
HL-60 = system: HL-60
HOP-92 = system: HOP-92
IGROV-1 = system: IGROV-1
K562 = system: K562
KM12 = system: KM12
MOLT-4 = system: MOLT-4
NCI-H23 = system: NCI-H23
OVCAR-3 = system: OVCAR-3
OVCAR-4 = system: OVCAR-4
SF-295 = system: SF-295
SK-MEL-2 = system: SK-MEL-2
SNB-19 = system: SNB-19
RXF 393 = system: RXF 393

Measured: GI50

CC1(C)CCC[C@@]2(C)C1C[C@H](O)[C@@]1(C)O[C@@](C)([C@H](O)CO)CCC21 (some centres not stated)
inactive: 786-0 44 µM | A498 20.9 µM | HL-60 24.9 µM | HOP-92 23.7 µM | IGROV-1 28.9 µM | K562 26.9 µM | KM12 37.2 µM | MOLT-4 21.2 µM | NCI-H23 33.7 µM | OVCAR-3 29.8 µM | OVCAR-4 35.7 µM | SF-295 35.6 µM | SK-MEL-2 20.7 µM | SNB-19 49.8 µM

Cc1cc(S(=O)(=O)O)c(NC(=O)C(=O)C2C=CCS2(=O)=O)cc1Cl (configuration not stated)
inactive: 786-0 > 100 µM | A498 > 100 µM | HL-60 > 100 µM | HOP-92 > 100 µM | IGROV-1 > 100 µM | K562 > 100 µM | KM12 > 100 µM | MOLT-4 > 100 µM | NCI-H23 > 100 µM | OVCAR-3 > 100 µM | OVCAR-4 > 100 µM | RXF 393 > 100 µM | SF-295 > 100 µM | SK-MEL-2 > 100 µM | SNB-19 > 100 µM

O=C1N(c2ccccc2)C2(O)C(=O)c3ccccc3C2(O)N1c1ccccc1 (configuration not stated)
inactive: 786-0 > 100 µM | A498 > 100 µM | IGROV-1 > 100 µM | K562 > 100 µM | KM12 > 100 µM | MOLT-4 > 100 µM | NCI-H23 > 100 µM | OVCAR-3 > 100 µM | OVCAR-4 > 100 µM | RXF 393 > 100 µM | SF-295 > 100 µM | SK-MEL-2 > 100 µM | SNB-19 > 100 µM

COC(=O)C1=CNC(C(=O)OC)=NN1
inactive: 786-0 > 100 µM | HL-60 > 100 µM | HOP-92 > 100 µM | IGROV-1 > 100 µM | K562 > 100 µM | KM12 > 100 µM | MOLT-4 > 100 µM | NCI-H23 > 100 µM | OVCAR-3 > 100 µM | OVCAR-4 > 100 µM | RXF 393 > 100 µM | SF-295 > 100 µM | SK-MEL-2 > 100 µM | SNB-19 > 100 µM

O=[N+]([O-])c1cc(C2SCc3nc4ccccc4n32)ccc1Cl (configuration not stated)
inactive: 786-0 34.3 µM | A498 18.1 µM | HL-60 16 µM | HOP-92 25.1 µM | IGROV-1 45.9 µM | K562 17.1 µM | KM12 16.7 µM | MOLT-4 31.3 µM | NCI-H23 16.1 µM | OVCAR-3 25.3 µM | RXF 393 25.3 µM | SF-295 38 µM | SK-MEL-2 21.2 µM | SNB-19 45.9 µM

Cc1cc(NS(=O)(=O)c2ccc(NC(=O)c3cccc4c(Nc5ccc(S(=O)(=O)N=C(N)N)cc5)c5ccccc5nc34)cc2)no1
inactive: 786-0 > 100 µM | A498 > 100 µM | HL-60 > 100 µM | HOP-92 > 100 µM | IGROV-1 > 100 µM | K562 > 100 µM | KM12 > 100 µM | MOLT-4 > 100 µM | NCI-H23 > 100 µM | OVCAR-3 > 100 µM | OVCAR-4 > 100 µM | RXF 393 > 100 µM | SF-295 > 100 µM | SNB-19 > 100 µM

Nc1ccccc1SC(/C=C/NNC1=NN=C(c2ccccc2)C(c2ccccc2)N1)c1ccccc1 (configuration not stated)
inactive: 786-0 12.2 µM | A498 20.4 µM | HL-60 3.32 µM | HOP-92 8.57 µM | IGROV-1 15.4 µM | K562 9.25 µM | KM12 12.7 µM | MOLT-4 3.64 µM | NCI-H23 5.85 µM | OVCAR-3 13 µM | OVCAR-4 14.9 µM | RXF 393 14 µM | SF-295 12.1 µM | SK-MEL-2 17.7 µM | SNB-19 18.7 µM

CCCc1c[nH]c(-c2ccc(-c3cc(CCC)c(C=O)[nH]3)s2)c1
inactive: 786-0 14.6 µM | A498 7.82 µM | HL-60 21.2 µM | IGROV-1 30.4 µM | K562 12.4 µM | KM12 14.7 µM | MOLT-4 26.4 µM | NCI-H23 26.5 µM | OVCAR-3 17 µM | OVCAR-4 18.9 µM | RXF 393 21.7 µM | SF-295 18.9 µM | SK-MEL-2 15 µM | SNB-19 22 µM

Cc1cc(C)cc(-n2c3nc(=O)n(C)c(=O)c-3nc3ccccc32)c1
inactive: 786-0 81.7 µM | A498 > 100 µM | IGROV-1 36.1 µM | K562 22.1 µM | KM12 27.1 µM | MOLT-4 23 µM | NCI-H23 15.7 µM | OVCAR-3 3.34 µM | OVCAR-4 18.5 µM | RXF 393 > 100 µM | SF-295 36 µM | SK-MEL-2 22.9 µM | SNB-19 22.1 µM

C/C(=N\NC(=S)N(C)C)c1ncc[nH]1
inactive: 786-0 2.18 µM | A498 3.94 µM | HL-60 2.63 µM | HOP-92 2.47 µM | IGROV-1 2.78 µM | K562 2.59 µM | KM12 5.21 µM | MOLT-4 3.06 µM | NCI-H23 2.1 µM | OVCAR-3 3.36 µM | RXF 393 6 µM | SF-295 4.28 µM | SK-MEL-2 3.69 µM | SNB-19 4.42 µM

Cc1ccc(C2=[N+]([O-])c3ccccc3C2=O)cc1
inactive: 786-0 24 µM | A498 > 100 µM | HL-60 7.98 µM | HOP-92 9.23 µM | IGROV-1 15.7 µM | K562 16.1 µM | KM12 17 µM | MOLT-4 24.7 µM | NCI-H23 19.2 µM | OVCAR-3 16.6 µM | RXF 393 17.7 µM | SF-295 28.8 µM | SK-MEL-2 > 46.8 µM | SNB-19 31.9 µM

O=C1c2ccccc2S[C@@H](O)[C@@H]2CCCN12
inactive: 786-0 > 100 µM | HL-60 > 100 µM | HOP-92 > 100 µM | IGROV-1 21.9 µM | K562 > 100 µM | KM12 > 100 µM | MOLT-4 > 100 µM | NCI-H23 > 100 µM | OVCAR-3 > 100 µM | RXF 393 > 100 µM | SF-295 > 100 µM | SK-MEL-2 > 100 µM | SNB-19 > 100 µM

CC(=O)CC(=O)Nc1ccccc1C(F)(F)F
inactive: 786-0 > 100 µM | A498 > 100 µM | HL-60 > 100 µM | HOP-92 > 100 µM | IGROV-1 > 100 µM | K562 > 100 µM | MOLT-4 > 100 µM | NCI-H23 > 100 µM | OVCAR-4 > 100 µM | RXF 393 > 100 µM | SK-MEL-2 > 100 µM | SNB-19 > 100 µM

CCC1CC2C(=O)N(c3ccccc3)C(=O)C2c2[nH]c3ccccc3c21 (configuration not stated)
inactive: 786-0 18.9 µM | A498 25.4 µM | HL-60 21.6 µM | IGROV-1 6.43 µM | K562 25.4 µM | KM12 31.2 µM | MOLT-4 20.2 µM | NCI-H23 71.8 µM | OVCAR-3 15.7 µM | OVCAR-4 4.61 µM | RXF 393 21.5 µM | SF-295 7.19 µM | SNB-19 22.9 µM

CCN(CC)C(=O)c1c(N2CCOCC2)cc(N(CC)CC)oc1=O
inactive: 786-0 > 100 µM | A498 > 100 µM | HL-60 > 100 µM | HOP-92 > 100 µM | IGROV-1 > 100 µM | K562 > 100 µM | KM12 > 100 µM | MOLT-4 > 100 µM | NCI-H23 > 100 µM | OVCAR-3 > 100 µM | OVCAR-4 > 100 µM | RXF 393 > 100 µM | SF-295 > 100 µM | SK-MEL-2 > 100 µM | SNB-19 > 100 µM

COc1ccc(N2C(=O)c3c(c4[nH]c5ccc(OC)cc5c4c4ccc(C(C)(C)C)cc34)C2=O)cc1
inactive: 786-0 > 100 µM | HL-60 53.2 µM | HOP-92 > 100 µM | IGROV-1 > 100 µM | K562 > 100 µM | KM12 > 100 µM | MOLT-4 > 100 µM | NCI-H23 > 100 µM | OVCAR-3 > 100 µM | OVCAR-4 > 100 µM | SF-295 > 100 µM | SK-MEL-2 > 100 µM | SNB-19 > 100 µM

CC1=C(C(=O)Nc2cc(=O)n(C)c(=O)n2C)C(c2ccc([N+](=O)[O-])cc2)C(C(=O)Nc2cc(=O)n(C)c(=O)n2C)=C(C)N1
inactive: 786-0 84.9 µM | A498 > 100 µM | HL-60 > 100 µM | HOP-92 26.7 µM | IGROV-1 > 100 µM | K562 75.5 µM | KM12 > 100 µM | MOLT-4 52.4 µM | NCI-H23 > 100 µM | OVCAR-3 > 100 µM | OVCAR-4 31.5 µM | RXF 393 > 100 µM | SF-295 > 100 µM | SK-MEL-2 > 100 µM | SNB-19 > 100 µM

CCn1cc(C(=O)O)c(=O)c2cc(F)c(N3CCNCC3)nc21 [ENOXACIN]
inactive: 786-0 > 100 µM | A498 > 100 µM | HL-60 > 100 µM | HOP-92 32.8 µM | IGROV-1 > 100 µM | K562 63.5 µM | KM12 79.3 µM | MOLT-4 67.1 µM | NCI-H23 31.1 µM | OVCAR-3 > 100 µM | OVCAR-4 > 100 µM | SF-295 > 100 µM | SK-MEL-2 > 100 µM | SNB-19 > 100 µM

Clc1ccc(C[P+]2(c3ccccc3)CCCCC2)cc1.[O-][Cl+3]([O-])([O-])[O-]
inactive: 786-0 > 100 µM | A498 > 100 µM | HL-60 24.4 µM | IGROV-1 > 100 µM | K562 78.2 µM | KM12 77.4 µM | MOLT-4 86.5 µM | NCI-H23 85.5 µM | OVCAR-3 44.7 µM | RXF 393 > 100 µM | SF-295 > 100 µM | SK-MEL-2 48.6 µM | SNB-19 66.8 µM
